Experiments:
[1] = tested on: C57BL/6 mouse spleen monocytes; assay: Dendritogenesis on C57BL/6 mouse spleen monocytes; format: cell-based; details: dose of 1 nM, 36 hours after the start of action
Description: 1) On C57BL/6 Mouse Spleen Monocytes
5-week-old mice are sacrificed by cervical dislocation. They are then dissected. The spleens are removed under sterile conditions and then placed in a cold solution (4° C.) containing serum-free culture medium supplemented with antibiotics (streptomycin and penicillin). The spleens are ground in a sterile fume cupboard and then filtered through a 100 μm filter. The eluate is recovered and then centrifuged at 1000 rpm for 5 minutes at 4° C. The cell pellet is resuspended in phosphate-buffered saline (PBS) solution containing […], the purpose of which is to lyze the red blood cells. The suspension is centrifuged at 1000 rpm and the cells are then resuspended in PBS. The washing operation is performed twice. The final resuspension is performed in whole culture medium, and the cells are counted and distributed into six-well dishes at a density of 40 000 cells/ml. Four hours later, the adhering cells are washed vigorously with PBS in order to remove the cells that might remain attached to the adhering cells or to the culture dish.
The conversion was obtained with a dose of 1 nM, the photograph having been taken 36 hours after the start of action of the product. The test product is that of example 9. The appearance of cellular extensions is observed, which is one of the main characteristics of activated dendritic cells.

[2] = tested on: T lymphocytes originating from BALB/c mouse spleens; assay: Proliferation of T lymphocytes (tritiated thymidine incorporation); format: cell-based; details: C57BL/6 dendritic cells in contact with BALB/c T lymphocytes
Description: C57BL/6 mouse monocytes were collected as indicated in example 48.1. The dendritic cells were obtained as indicated in example 9. After transformation into CDs with the test compound, the cells are treated with an antimitotic agent (mitomycin C at 0.0006 mg/ml) and incubated for 30 minutes at 37° C., in order to block DNA synthesis in the CDs. After this treatment, the cells are washed twice with RPMI 1640 medium supplemented with 10% fetal calf serum.
BALB/c mouse spleens were also collected and treated as described for the preparation of the C57BL/6 mouse monocytes. The nonadherent cells, which contain the T lymphocytes, are recovered and added to the C57BL/6 mouse dendritic cells. On the fourth day of contact of the cells, tritiated thymidine is added. After incubation for 18 hours, the cells are lyzed with absolute alcohol. The precipitate is suspended in water and then filtered through a cellulose filter. The incorporation of thymidine is measured by scintillation counting (Packard Instrument, Meriden Conn., USA).
The adherent monocytes originating from mouse spleens obtained according to example 14.1 were treated with the abovementioned compound at variable doses. […] The lymphocyte proliferation is measured by measuring the incorporation of tritiated thymidine into the DNA.

[3] = tested on: TS/A tumors implanted onto BALB/c mice; assay: Growth tests on tumors implanted onto BALB/c mice; format: in vivo; details: for tumor growth relative to the control mice: intradermal in the region of the tumor
Description: The tumors are implanted in the following manner: 1×10^6 TS/A cells are inoculated by intradermal injection into the right side of the abdomen of 5-6-week-old BALB/c mice (Janvier breeding station, Le Genest Saint Isle).
The test molecule is the one corresponding to example 9; it is injected on the third day intradermally in the region of the tumor; the result is shown in FIG. 7.
The same experiment as that described above was repeated, changing the area of injection of the molecule corresponding to example 9; the injection is performed on the third day after implantation of the tumor, intradermally into the controlateral position relative to said implantation. […] This illustrates the efficacy of the treatment for an administration of the test compound remote from the tumor. The results obtained are represented by the curves in FIG. 17.

A549 cells = assay: Actin and tubulin skeleton on treated A549 cells (fluorescence microscopy); format: cell-based, human
Description: A549 cells were treated with the compound of example 9 according to the protocol described in detail in example 55; they are inoculated onto glass slides placed at the bottom of six-well culture dishes (NUNC) at a density of 50 000 cells per well in a nutrient medium of “RPMI 1640” type sold by the company “Gibco BRL”, supplemented with 10% fetal calf serum. The cells are then fixed with 3% paraformaldehyde solution and are permeabilized with a detergent solution containing 0.1% “Triton-X-100” in PBS. The actin skeleton of the treated cells was observed by labeling the cells with phalloidin-FITC.
In this case, the A549 cells are labeled with an anti-γ-tubulin antibody and developed with an anti-IgG-FITC antibody.

U937 cells = assay: Induction of vacuole production in the U937 tumoral cell line; format: cell-based, human; details: 10 nM, 24 hours
Description: U937 cells were treated with 10 nM of the compound according to example 9 for 24 hours. The treatment methods are those described in detail in example 55.

[4] = tested on: U937 cells expressing RCPG-HA; assay: Overexpression of a membrane receptor in the U937 tumoral cell line; format: cell-based, human; details: 10 nM, 12 hours, 48 hours after transfection
Description: U937 cells were cultured in an “RPMI 1640” medium sold by the company “Gibco BRL”. A plasmid coding for an […] membrane receptor belonging to the superfamily of protein G-coupled receptors and containing an HA label is generated.
The U937 cells expressing the receptors are generated by transfection using the “lipofectamine” reagent according to the manufacturer's instructions.
48 hours after transfection, the transfected cells were treated with 10 nM of compound according to example 9 for 12 hours.
These cells were fixed in order to be examined by fluorescence microscopy.

**Q.** How did the “morphological changes on the mouse monocytes, conversion into dendritic cells” value [1] turn out when `CC(C)CCC[C@@H](C)[C@H]1CC[C@H]2[C@@H]3C[C@@H](NCCc4c[nH]cn4)[C@@]4(O)C[C@@H](O)CC[C@]4(C)[C@H]3CC[C@]12C` [Example 9, cholestane-3β,5α-diol-6β-N-[2-ethylamino(1H-imidazol-4-yl)]] was run?
**A.** Its value is “conversion resulting in dendritic cells”.

**Q.** What about the “stimulation of the T lymphocyte proliferation (factor)” value [2] of the same compound?
**A.** The value was 5.

**Q.** What about the “tumor growth relative to the control mice” value ([3]; 8.5 ng/g of mouse, third day) of the same compound?
**A.** The value was “slowing-down effect”.

**Q.** What about the “tumor growth relative to the control mice” value ([3]; 1.7 μg/g of mouse, third day) of the same compound?
**A.** The value was “no tumor is detectable”.

**Q.** And the “tumor growth relative to the control mice, administration remote from the tumor” value ([3]; 1.7 μg/g of mouse, intradermal, controlateral position, third day)?
**A.** Its value is “slowing-down of the tumoral growth”.

**Q.** What about the “peripheral lymphoid system, activation of the immune system” value ([3]; 1.7 μg/g, whether or not a tumor has been implanted) of the same compound?
**A.** The value was “hyperplasia of the peripheral lymphoid system is observed”.

**Q.** And the “necrosis in the area of injection (anatomopathology)” value ([3]; intradermal injection)?
**A.** Its value is “no trace of necrosis is observable”.

**Q.** And the “actin skeleton of treated A549 cells (phalloidin-FITC)” value (A549 cells; FIG. 12 photograph 2)?
**A.** The value was “appearance of refringent vesicles, which are surrounded by actin”.

**Q.** What about the “tubulin skeleton of treated A549 cells (anti-γ-tubulin antibody)” value (A549 cells; FIG. 13 photograph 2) of the same compound?
**A.** The value was “presence of intracytoplasmic vacuoles, which are not surrounded with γ-tubulin”.

**Q.** What about the “induction of vacuole production in U937 cells (electron microscopy)” value (U937 cells) of the same compound?
**A.** The value was “numerous intracytoplasmic vacuoles have appeared”.

**Q.** What about the “expression of RCPG-HA membrane receptor (immunofluorescence)” value [4] of the same compound?
**A.** The value was “expression of a membrane receptor of RCPG type”.

From patent US7947668B2, “Aminoalkyl sterol compounds having an anti-tumoral and neuroprotective activity” (Institut National de la Sante et de la Recherche Medicale, priority 2002, dated 2011)
